PMC7168207, “Dibasic Derivatives of Phenylcarbamic Acid as Prospective Antibacterial Agents Interacting with Cytoplasmic Membrane” (Antibiotics, 2020)
Where “and” joins values, the source holds several entries; their conditions need not be identical. Equal entries are not always repeated. Where two headings read alike, the source gives them in different places. Marks after values point to notes of the source that are not given here.

Key:
S. aureus ATCC 29213 = assay: MIC, broth microdilution; format: cell-based, Staphylococcus aureus; settings: Staphylococcus aureus, ATCC29213
How it was run: (§1)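 Each strain, standardized to 0.5 McFarland and brought to a final 5 × 10^5 CFU/mL, was exposed to compound dilutions in genus-appropriate medium (cation-adjusted MH for S. aureus, BHI for enterococci). It was then held overnight under air at 37 °C before growth inhibition was scored.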

[1] = tested on: methicillin-resistant S. aureus 63718; assay: MIC, broth microdilution; format: cell-based, Staphylococcus aureus; settings: Staphylococcus aureus; MRSA1 = S. aureus 63718; read-out: MICs
How it was run: as §1

[2] = tested on: methicillin-resistant S. aureus SA 630; assay: MIC, broth microdilution; format: cell-based, Staphylococcus aureus; settings: Staphylococcus aureus; MRSA2 = SA 630; read-out: MICs
How it was run: as §1

MRSA 63718 = assay: synergy with antibiotics (FIC index, checkerboard); format: cell-based, Staphylococcus aureus; settings: in the combination of that line
Source text: (§2) Representatives from various classes were chosen in order to study the potential difference in synergistic activity according to the diverse mechanisms of action and resistance of these drugs. The method of minimal fractional inhibitory concentration (FIC) index (FICI) in a microtitration plate was used. FICI ≤ 0.5 means synergy; 0.5 < FICI < 1 means additivity; 1 ≤ FICI < 4 means indifference; and FICI ≥ 4 means antagonism.
(§3) For synergy effect study, a method of fractional inhibitory concentration was used. […] Raw H was used for the evaluation of MIC(A); column 12 was used for evaluation of MIC(B). The plate was inoculated by the bacterial suspension to reach final concentration of 5 × 10^5 CFU/mL in the wells. The fractional inhibitory concentration (FIC) index was calculated using the concentrations in the first nonturbid (clear) well found in each row and column along the turbidity/nonturbidity interface. To interpret the combined effect, the lowest FICI was used. A ΣFIC ≤ 0.5 means synergy; 0.5 < ΣFIC < 1 means additivity; 1 ≤ ΣFIC < 4 means indifference; and ΣFIC ≥ 4 means antagonism. The tests were made in duplicate, and the results were averaged.

VRE 725B [3] = assay: synergy with antibiotics (FIC index, checkerboard); format: cell-based, Enterococcus faecalis; settings: combination with VAN, data not shown
Source text: as §2
The used VRE strains were isolated from American crows by Oravcova et al., and their genetic profiles were characterized. All the VRE strains were carrying genes vanA, tetM, and ermB. Strains VRE 368 and VRE 725B carried gene aac, which provided acquired aminoglycoside resistance.
as §3

E. faecalis ATCC 29212 = assay: time-kill study; format: cell-based, Enterococcus faecalis; settings: EF
Source text: (§4) Time-kill studies are used to evaluate the dynamics of antibacterial activity. As mentioned above, a pre-test to determine minimum bactericidal concentration (MBC) by sub-cultivation of aliquots on agar was made (see Section 3.4). […] Time-kill studies were made with methicillin-susceptible S. aureus ATCC 29213 and methicillin-resistant MRSA 63718, vancomycin-susceptible E. faecalis ATCC 29212, and all three VRE isolates. Vancomycin was used as a control (Table 6).
(§5) The method of time-kill curves was used to study the bactericidal effect of selected compounds. […] The experiment was performed with S. aureus ATCC 29213, MRSA 63718, E. faecalis ATCC 29212, and all VRE isolates. […] The tubes were inoculated by bacterial inoculum in the exponential phase of growth to get a final concentration of 7.5 × 10^6 CFU/mL. The tubes were incubated statically at 37 °C. Immediately after inoculation and after 4, 6, 8, and 24 h, 100 µL of the sample was serially diluted (1:10) in PBS. Then, 2 × 20 µL from each dilution were put onto a Mueller–Hinton agar plate and cultivated at 37 °C for 24 h. After incubation, CFUs of dilutions containing 5–50 colonies were counted. Results were expressed as a decrease of log10(CFU) in each time compared to the starting inoculum. Bactericidal effect is defined as a −3log decrease of CFU/mL compared to the growth control in time 0. The test was made in duplicate on two separate occasions, and the results were averaged. The growth curves with error bars are shown in Figures S1 and S2 in Supplementary Materials.

VRE 342B = assay: time-kill study; format: cell-based, Enterococcus faecalis; settings: VRE1
Source text: as §4, §5

VRE 368 = assay: time-kill study; format: cell-based, Enterococcus faecalis; settings: VRE2
Source text: as §4, §5

VRE 725B [4] = assay: time-kill study; format: cell-based, Enterococcus faecalis; settings: VRE3
Source text: as §4, §5

MIC (S. aureus ATCC 29213; SA = S. aureus ATCC 29213, read-out: MICs): 8 µg/mL and 15.4 µM
MIC (S. aureus ATCC 29213; Table 7, planktonic cells of S. aureus ATCC 29213, read-out: MIC): 8 µg/mL
MIC [1]: 8 µg/mL and 15.4 µM
MIC [2]: 16 µg/mL and 30.8 µM
Structure (SMILES): CCCCCCOc1cccc(NC(=O)OC(CN(CCC)CCC)CN2CCCC2)c1.Cl.Cl (stereo not drawn) [1g, 1-[3-(dipropylammonio)-2-({[3-(hexyloxy)phenyl]carbamoyl}oxy)propyl]pyrrolidinium dichloride]
concentrations of the tested compound/clinically used antibiotic providing additivity or synergy (MRSA 63718): 2 µg/mL
effect of the combination with VAN (VRE 725B [3]): indifferent effect
Log10 Difference in CFU/mL from Inoculum (E. faecalis ATCC 29212; 1 × MIC, 4 h): −1.63 log10 CFU/mL
Log10 Difference in CFU/mL from Inoculum (E. faecalis ATCC 29212; 1 × MIC, 6 h): −1.01 log10 CFU/mL
Log10 Difference in CFU/mL from Inoculum (E. faecalis ATCC 29212; 1 × MIC, 8 h): −0.61 log10 CFU/mL
Log10 Difference in CFU/mL from Inoculum (E. faecalis ATCC 29212; 1 × MIC, 24 h): 0.27 log10 CFU/mL
Log10 Difference in CFU/mL from Inoculum (E. faecalis ATCC 29212; 2 × MIC, 4 h): −3.37 * log10 CFU/mL
Log10 Difference in CFU/mL from Inoculum (E. faecalis ATCC 29212; 2 × MIC, 6 h): −3.43 * log10 CFU/mL
Log10 Difference in CFU/mL from Inoculum (E. faecalis ATCC 29212; 2 × MIC, 8 h): −2.68 log10 CFU/mL
Log10 Difference in CFU/mL from Inoculum (E. faecalis ATCC 29212; 2 × MIC, 24 h): 1.04 log10 CFU/mL
Log10 Difference in CFU/mL from Inoculum (E. faecalis ATCC 29212; 4 × MIC, 4 h): −5.62 * log10 CFU/mL
Log10 Difference in CFU/mL from Inoculum (E. faecalis ATCC 29212; 4 × MIC, 6 h): −5.14 * log10 CFU/mL
Log10 Difference in CFU/mL from Inoculum (E. faecalis ATCC 29212; 4 × MIC, 8 h): −5.92 * log10 CFU/mL
Log10 Difference in CFU/mL from Inoculum (E. faecalis ATCC 29212; 4 × MIC, 24 h): −0.31 log10 CFU/mL
Log10 Difference in CFU/mL from Inoculum (VRE 342B; 1 × MIC, 4 h): −0.14 log10 CFU/mL
Log10 Difference in CFU/mL from Inoculum (VRE 342B; 1 × MIC, 6 h): 0.97 log10 CFU/mL
Log10 Difference in CFU/mL from Inoculum (VRE 342B; 1 × MIC, 8 h): 1.01 log10 CFU/mL
Log10 Difference in CFU/mL from Inoculum (VRE 342B; 1 × MIC, 24 h): 1.11 log10 CFU/mL
Log10 Difference in CFU/mL from Inoculum (VRE 342B; 2 × MIC, 4 h): −0.36 log10 CFU/mL
Log10 Difference in CFU/mL from Inoculum (VRE 342B; 2 × MIC, 6 h): −1.89 log10 CFU/mL
Log10 Difference in CFU/mL from Inoculum (VRE 342B; 2 × MIC, 8 h): −0.64 log10 CFU/mL
Log10 Difference in CFU/mL from Inoculum (VRE 342B; 2 × MIC, 24 h): 1.51 log10 CFU/mL
Log10 Difference in CFU/mL from Inoculum (VRE 342B; 4 × MIC, 4 h): −0.92 log10 CFU/mL
Log10 Difference in CFU/mL from Inoculum (VRE 342B; 4 × MIC, 6 h): −1.00 log10 CFU/mL
Log10 Difference in CFU/mL from Inoculum (VRE 342B; 4 × MIC, 8 h): −1.09 log10 CFU/mL
Log10 Difference in CFU/mL from Inoculum (VRE 342B; 4 × MIC, 24 h): 0.77 log10 CFU/mL
Log10 Difference in CFU/mL from Inoculum (VRE 368; 1 × MIC, 4 h): −2.00 log10 CFU/mL
Log10 Difference in CFU/mL from Inoculum (VRE 368; 1 × MIC, 6 h): 0.29 log10 CFU/mL
Log10 Difference in CFU/mL from Inoculum (VRE 368; 1 × MIC, 8 h): 0.25 log10 CFU/mL
Log10 Difference in CFU/mL from Inoculum (VRE 368; 1 × MIC, 24 h): −0.16 log10 CFU/mL
Log10 Difference in CFU/mL from Inoculum (VRE 368; 2 × MIC, 4 h): −2.34 log10 CFU/mL
Log10 Difference in CFU/mL from Inoculum (VRE 368; 2 × MIC, 6 h): −1.97 log10 CFU/mL
Log10 Difference in CFU/mL from Inoculum (VRE 368; 2 × MIC, 8 h): −1.01 log10 CFU/mL
Log10 Difference in CFU/mL from Inoculum (VRE 368; 2 × MIC, 24 h): 0.32 log10 CFU/mL
Log10 Difference in CFU/mL from Inoculum (VRE 368; 4 × MIC, 4 h): −2.72 * log10 CFU/mL
Log10 Difference in CFU/mL from Inoculum (VRE 368; 4 × MIC, 6 h): −2.71 * log10 CFU/mL
Log10 Difference in CFU/mL from Inoculum (VRE 368; 4 × MIC, 8 h): −2.45 log10 CFU/mL
Log10 Difference in CFU/mL from Inoculum (VRE 368; 4 × MIC, 24 h): 0.97 log10 CFU/mL
Log10 Difference in CFU/mL from Inoculum (VRE 725B [4]; 1 × MIC, 4 h): −0.09 log10 CFU/mL
Log10 Difference in CFU/mL from Inoculum (VRE 725B [4]; 1 × MIC, 6 h): −0.29 log10 CFU/mL
Log10 Difference in CFU/mL from Inoculum (VRE 725B [4]; 1 × MIC, 8 h): 0.19 log10 CFU/mL
Log10 Difference in CFU/mL from Inoculum (VRE 725B [4]; 1 × MIC, 24 h): 2.41 log10 CFU/mL
Log10 Difference in CFU/mL from Inoculum (VRE 725B [4]; 2 × MIC, 4 h): −0.75 log10 CFU/mL
Log10 Difference in CFU/mL from Inoculum (VRE 725B [4]; 2 × MIC, 6 h): −0.74 log10 CFU/mL
Log10 Difference in CFU/mL from Inoculum (VRE 725B [4]; 2 × MIC, 8 h): 0.56 log10 CFU/mL
Log10 Difference in CFU/mL from Inoculum (VRE 725B [4]; 2 × MIC, 24 h): 0.43 log10 CFU/mL
Log10 Difference in CFU/mL from Inoculum (VRE 725B [4]; 4 × MIC, 4 h): −1.85 log10 CFU/mL
Log10 Difference in CFU/mL from Inoculum (VRE 725B [4]; 4 × MIC, 6 h): −1.85 log10 CFU/mL
Log10 Difference in CFU/mL from Inoculum (VRE 725B [4]; 4 × MIC, 8 h): −2.15 log10 CFU/mL
Log10 Difference in CFU/mL from Inoculum (VRE 725B [4]; 4 × MIC, 24 h): −2.27 log10 CFU/mL
